Data reported in the NIST ThermoML archive (doi:10.1016/j.fluid.2011.09.020).

Conditions: Liquid, Ebulliometric method (Recirculating still)

O=C(O)C(Cl)Cl [2,2-dichloroacetic acid]
Conditions | vapor or sublimation pressure [kPa]
384.3 K | 5
388.3 K | 6
391.8 K | 7
394.8 K | 8
397.6 K | 9
400.2 K | 10
402.4 K | 11
404.3 K | 12
406.4 K | 13
408.3 K | 14
410.1 K | 15
414.1 K | 17.5
417.5 K | 20
423.5 K | 25
428.6 K | 30
437 K | 40

O=C(O)CCl [chloroethanoic acid]
Conditions | vapor or sublimation pressure [kPa]
380.7 K | 5
384.7 K | 6
389.5 K | 7.5
391 K | 8
393.8 K | 9
396.3 K | 10
398.7 K | 11
400.7 K | 12
402.7 K | 13
404.6 K | 14
406.3 K | 15
410.2 K | 17.5
413.7 K | 20
419.5 K | 25
424.5 K | 30
432.6 K | 40
